Source: US6753424B1, “Conjugates of DNA interacting groups with steroid hormones for use as nucleic acid transfection agents” (priority 1998, dated 2004)

Tests used:
3Y1 cells = assay: Transfection enhancement, CMV-LacZ reporter, CaPO4 transfection of 3Y1 cells; assay type: cell-based, rat; settings: for light units (relative luminescence, LacZ): 5 μg reporter, 3Y1
Method: Conditions: 3Y1 cells are transfected with an expression vector that is constitutively expressing the reporter gene LacZ (CMV-LacZ). Transfection conditions are identical throughout the various samples (total 10-12 μq DNA for 4 cm dishes). In some samples the DNA used for the transfection cocktail is pre-incubated with various conjugates at the given concentrations. The concentrations are calculated to give from 10−8 to 10−6 M after dispersing the CaPO4 precipitate in the recipient dish (5 ml volume). Transfection is performed O/N and after rinsing of the precipitate the cells are further incubated for 24 hours. LacZ levels are determined from cell extracts with a chemiluminescence LacZ enzyme assay (Galactolight plus. Tropix). The relative luminescence from each extract is given in RLU/mg*1000.
Cell culture. Cells are cultivated in DMEM supplemented with serum and antibiotica according to standard conditions (typically 10% FCS and Pen/Strep as antibiotica). At the day of transfection, cells are trypsinized and seeded at around 25-30% confluency. Cells are allowed to adhere to dish for 4-6 hours prior to transfection.
DNA pre-incubation (example for conditions that give5×10 exp (−6) Molar final concentration of the CL-C4-EtBr conjugate):
5 microgram of CMV-LacZ DNA (in 10 microliter TE) are mixed with 10 nmoles of hormone derivative (10 microliters stock solution) and incubated for 10 min at room temperature (final volume: 20 ul). The DNA/cortisol-C4-ethidum mix is then supplemented with 7 micrograms sheared calf thymus carrier DNA (in 14 microliters TE) and bidistilled water to give a final volume of 125 microliters.
Transfection by CaPO4: to each transfection sample (125 microliter volume DNA+water). 125 microliters of Ca ++ mix are added, and the mix is incubated for 5-10 min at room temperature. Each sample is then supplemented with 250 microliter of Pi-mix (with simultaneous mixing by up-down pipetting) and is further incubated 10 minutes at room temperature after which the cocktail is poured on top of the medium (5 ml) of each cell culture dish (4 cm diameter). The optimal time of incubation after Pi-mix addition is pre-determined by prior evaluation (size of the precipitate) of parallel samples. The precipitate is allowed to deposit onto the cells for 15 hours (incubation of 37 degrees, 5% CO2). The cells are then rinsed twice with Tris-buffered Saline, supplemented with fresh medium and further incubated under standard conditions. To analyze LacZ reporter gene function, the cells are either fixed or harvested 24 hours after precipitate removal.
Variation of parameters: samples in which the C1-C4-EtBr conjugates (or control compounds) are used at different concentrations, are similarly treated, except that the concentration of the stock solution in ethanol is correspondingly varied.

[1] = system: CV-1 cells reconstituted with exogenous GR; assay: Transfection enhancement, CMV-LacZ reporter, CV-1 cells reconstituted with exogenous GR; assay type: cell-based, monkey
Method: Conditions: CV-1 cells are first infected with an adenovirus system allowing expression of GR in >90% of the cells (S. B. Verca, unpublished). After 24 hours the cells are; transfected with an expression vector that is constitutively expressing the reporter gene LacZ (CMV-LacZ). Transfection conditions and analysis of LacZ reporter are the same as described in Example 7 legend. Transfection is performed O/N and after rinsing of the precipitate the cells are further incubated for 24 hours. LacZ levels are determined from cell extracts with a chemiluminescence LacZ enzyme assay (Galactolight plus, Tropix). The relative luminescence from each extract is given. Each value represents an individual extract. “Induction”: relative reporter gene activity (values divided by value of assay in lane 9, true negative control for liganding), rel/RLU=(RLU:protein)×1000, net=rel/RLU−600 (600=rel/RLU value approximately corresponding to rel/RLU value of mock transfection).

HUH-7 cells = assay: Transfection enhancement, CMV-LacZ reporter, HUH-7 cells; assay type: cell-based, human
Method: Conditions: HUH-7 cells are human hepatoma cells that contain substantial amounts of glucocorticoid receptor. The cells are transfected with an expression vector that is constitutively expressing the reporter gene LacZ (CMV-LacZ). Transfection conditions and analysis of LacZ reporter are the same as described in Example 7 legend. Transfection is performed O/N and after rinsing of the precipitate the cells are further incubated for 24 hours. LacZ levels are determined from cell extracts with a chemiluminescence LacZ enzyme assay (Galactolight plus, Tropix). The relative luminescence from each extract is given. Each value represents an individual extract. “Induction”: relative reporter gene activity (values divided by value of assay in lane 9, true negative control for DNA liganding). rel/RLU=(RLU:protein)×1000; net=rel/RLU−600 (600=rel/RLU value approximately corresponding to rel/RLU value of mock transfection).

GR-GFP chimera = assay: Nuclear Transfer Induction assay (NTI), monourethane ligands, HeLa cells; assay type: cell-based; settings: 1 hr
Method: Conditions: HeLa cells are transiently transfected by CaPO4 with an expression vector encoding a GR-GFP chimera (5 μg in transfection cocktail, 4 cm diameter dishes, DMEM with 3% FCS). After 24 hour expression, ligand is added for 1 hr and cells are fixed with formaldehyde (5 min 4° C.) and inspected by fluorescence microscopy. Fluorescent cells are counted and divided into different classes according to ‘cytoplasmic’ (C) versus ‘nuclear’ (N) localisation of fluorescence.
First column: “Conditions”: Name of compounds added (marked at top: ‘//ligand’), and their concentration (in parentheses) and assay number (01 through 21).
Values are given as percentage of cells displaying the corresponding localisatidn, within each tested condition the sum is 100%.

[2] = Stability of C-21 ester versus C-21 urethane derivatives (TLC analysis); assay type: in vitro ADME; settings: pH 5, pH 9, proteinase K (pH 7.8, 50 μg/ml), dispase (2.4 U/ml), cellular extracts, DMEM/10% FCS
Method: b) water buffered to pH 9;
c) water buffered to pH 5;
e) proteinase K (pH 7.8; 50 μg/ml);
After 15 hours of incubation each sample is separately extracted with 400 μl Ethyl acetate, evaporated under N2-flow, redissolved in 20 μl Ethyl acetate and analysed by TLC analysis: stationary phase: Alugram SIL G-25 UV254 (Macherey Nagel AG); mobile phase: Ethyl acetate-MeOH-Acetone (3-1-3).

[3] = system: CV-1 cells reconstituted with exogenous GR; assay: Transfection enhancement, CMV-LacZ reporter, CV-1 cells reconstituted with exogenous GR; assay type: cell-based, monkey; settings: CV-1 cells that have not been supplemented with GR; data not shown

CC[n+]1c(-c2ccccc2)c2cc(N)ccc2c2ccc(N)cc21 [EtBr, Ethidium Bromide, reference compound]
light units (relative luminescence, LacZ) (3Y1 cells; ligand 10^-6M): 2250 RLU/mg*1000
light units (relative luminescence, LacZ) (3Y1 cells; ligand 10^-7M): 2500 RLU/mg*1000
light units (relative luminescence, LacZ) (3Y1 cells; ligand 10^-8M): 2750 RLU/mg*1000
RLU ([1]; ligand 10-6, CV-1 with GR): 851
induction (relative reporter gene activity, divided by value of lane 9) ([1]; ligand 10-6, CV-1 with GR): 0.77
net = rel/RLU−600 ([1]; ligand 10-6, CV-1 with GR): 626.2
rel/RLU = (RLU:protein)×1000 ([1]; ligand 10-6, CV-1 with GR): 1226.2
RLU ([1]; ligand 10-7, CV-1 with GR): 1632
induction (relative reporter gene activity, divided by value of lane 9) ([1]; ligand 10-7, CV-1 with GR): 2.01
net = rel/RLU−600 ([1]; ligand 10-7, CV-1 with GR): 1626
rel/RLU = (RLU:protein)×1000 ([1]; ligand 10-7, CV-1 with GR): 2226.5
RLU (HUH-7 cells; ligand 10-6, HUH-7): 168920
induction (relative reporter gene activity, divided by value of lane 9) (HUH-7 cells; ligand 10-6, HUH-7): 1.49
net (HUH-7 cells; ligand 10-6, HUH-7): 103
rel/RLU (HUH-7 cells; ligand 10-6, HUH-7): 233.3

Cc1oc2c(C)c3oc(=O)cc(C)c3cc2c1CNC(=O)CCNC(=O)OCC(=O)[C@@]1(O)[C@H](C)CC2C3CCC4=CC(=O)C=CC4(C)[C@@]3(F)C(O)CC21C (stereo partly drawn) [DEX-C4-Pso]
C < N, percentage of cells (GR-GFP chimera; ligand 1.10-6M): 15%
C << N, percentage of cells (GR-GFP chimera; ligand 1.10-6M): 5%
C = N, percentage of cells (GR-GFP chimera; ligand 1.10-6M): 60%
C > N, percentage of cells (GR-GFP chimera; ligand 1.10-6M): 20%
C >> N, percentage of cells (GR-GFP chimera; ligand 1.10-6M): 0%
C < N, percentage of cells (GR-GFP chimera; ligand 1.10-7M): 5%
C << N, percentage of cells (GR-GFP chimera; ligand 1.10-7M): 0%
C = N, percentage of cells (GR-GFP chimera; ligand 1.10-7M): 40%
C > N, percentage of cells (GR-GFP chimera; ligand 1.10-7M): 35%
C >> N, percentage of cells (GR-GFP chimera; ligand 1.10-7M): 20%
stability of urethane bond between steroid moiety, spacer and DNA binder [2]: stable

CC[n+]1c(-c2ccccc2)c2cc(NC(=O)CCNC(=O)OCC(=O)[C@@]3(O)CCC4C5CCC6=CC(=O)CCC6(C)C5C(O)CC43C)ccc2c2ccc(N)cc21 (stereo partly drawn) [CL-C4-EtBr]
improvement of expression (3Y1 cells; lane 10 (10^-6M) versus lanes 11-13, 3Y1): 5-7 fold
light units (relative luminescence, LacZ) (3Y1 cells; ligand 10^-6M): 7250 RLU/mg*1000
light units (relative luminescence, LacZ) (3Y1 cells; ligand 10^-7M): 3750 RLU/mg*1000
light units (relative luminescence, LacZ) (3Y1 cells; ligand 10^-8M): 2750 RLU/mg*1000
C < N, percentage of cells (GR-GFP chimera; ligand 1.10-6M): 45%
C << N, percentage of cells (GR-GFP chimera; ligand 1.10-6M): 0%
C = N, percentage of cells (GR-GFP chimera; ligand 1.10-6M): 55%
C > N, percentage of cells (GR-GFP chimera; ligand 1.10-6M): 0%
C >> N, percentage of cells (GR-GFP chimera; ligand 1.10-6M): 0%
C < N, percentage of cells (GR-GFP chimera; ligand 1.10-7M): 9%
C << N, percentage of cells (GR-GFP chimera; ligand 1.10-7M): 0%
C = N, percentage of cells (GR-GFP chimera; ligand 1.10-7M): 74%
C > N, percentage of cells (GR-GFP chimera; ligand 1.10-7M): 17%
C >> N, percentage of cells (GR-GFP chimera; ligand 1.10-7M): 0%
improvement of expression ([1]; lane 06 (10-6) versus lanes 7-9, CV-1 with GR): 15-20 fold
RLU ([1]; ligand 10-6, CV-1 with GR): 10010
induction (relative reporter gene activity, divided by value of lane 9) ([1]; ligand 10-6, CV-1 with GR): 17.3
net = rel/RLU−600 ([1]; ligand 10-6, CV-1 with GR): 13992
rel/RLU = (RLU:protein)×1000 ([1]; ligand 10-6, CV-1 with GR): 14592
RLU ([1]; ligand 10-7, CV-1 with GR): 1988
induction (relative reporter gene activity, divided by value of lane 9) ([1]; ligand 10-7, CV-1 with GR): 2.75
net = rel/RLU−600 ([1]; ligand 10-7, CV-1 with GR): 2232
rel/RLU = (RLU:protein)×1000 ([1]; ligand 10-7, CV-1 with GR): 2831.9
RLU ([1]; ligand 10-8, CV-1 with GR): 1211
induction (relative reporter gene activity, divided by value of lane 9) ([1]; ligand 10-8, CV-1 with GR): 1.33
net = rel/RLU−600 ([1]; ligand 10-8, CV-1 with GR): 1075
rel/RLU = (RLU:protein)×1000 ([1]; ligand 10-8, CV-1 with GR): 1675
improvement of expression (HUH-7 cells; lane 07 (10-6) versus lanes 8-9, HUH-7): 7-8 fold
RLU (HUH-7 cells; ligand 10-6, HUH-7): 629514
induction (relative reporter gene activity, divided by value of lane 9) (HUH-7 cells; ligand 10-6, HUH-7): 7.84
net (HUH-7 cells; ligand 10-6, HUH-7): 543
rel/RLU (HUH-7 cells; ligand 10-6, HUH-7): 673.3
RLU (HUH-7 cells; ligand 10-7, HUH-7): 198082
induction (relative reporter gene activity, divided by value of lane 9) (HUH-7 cells; ligand 10-7, HUH-7): 1.95
net (HUH-7 cells; ligand 10-7, HUH-7): 135
rel/RLU (HUH-7 cells; ligand 10-7, HUH-7): 265.2
SMGD effect (transfection enhancement) [3]: No SMGD effect
